According to PubChem BioAssay (NCI):
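Dose response: 5 concentrations. Exposure: 48 h. Format: 96-well plates. Endpoint: linear interpolation; highest concentration if not reached. At the GI50, growth is halved. Definition used: TGI = concentration required for complete inhibition of growth.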

Key:
Assay in all cases: NCI tumour cell line growth inhibition, 48 h
[1] = tested on: IGROV1 ovarian
[2] = tested on: M14 melanoma
[3] = tested on: UACC-257 melanoma
[4] = tested on: HT29 colon
[5] = tested on: SK-OV-3 ovarian
[6] = tested on: RXF 393 renal
[7] = tested on: NCI-H226 lung
[8] = tested on: HCC-2998 colon

Row | SMILES | TGI [1] | TGI [2] | TGI [3] | TGI [4] | TGI [5] | TGI [6] | TGI [7] | TGI [8] | GI50 [1] | GI50 [2] | GI50 [3] | GI50 [4] | GI50 [5] | GI50 [6] | GI50 [7] | GI50 [8]
1 | C/C=C(/CCC1NCCC2c3ccccc3NC12)[Si](C)(C)C (configuration not stated) | 25.6 µM | 11.8 µM | 14.2 µM | 8.53 µM | 29.1 µM | 19.2 µM | 27.1 µM | 3.61 µM | – | – | – | – | – | – | – | –
2 | CN(C)CCC(CCN(C)C)=NOC(=O)c1ccccc1 | > 100 µM | > 100 µM | > 100 µM | > 100 µM | > 100 µM | > 100 µM | – | > 100 µM | – | – | – | – | – | – | – | –
3 | NC(=O)c1ncn(CCN2CCN(C(=O)NCCCCCCNC(=O)N3CCN(CCn4cnc(C(N)=O)c4N)CC3)CC2)c1N | > 100 µM | > 100 µM | > 100 µM | > 100 µM | > 100 µM | > 100 µM | > 100 µM | > 100 µM | – | – | – | – | – | – | – | –
4 | Cc1cc(Cl)ccc1NC(=O)CCCC(=O)C1CCC/C1=N\NC(=O)CC#N (configuration not stated) | > 100 µM | > 100 µM | > 100 µM | > 100 µM | > 100 µM | – | > 100 µM | – | – | – | – | – | – | – | – | –
5 | COc1cccc(NC(=O)C(C)(C)C)c1SSc1c(NC(=O)C(C)(C)C)cccc1OC | > 100 µM | 32.5 µM | 51.4 µM | > 65.1 µM | > 100 µM | 35.3 µM | > 93.6 µM | > 100 µM | – | – | – | – | – | – | – | –
6 | O=C(CC1(O)C(=O)Nc2ccccc21)c1ccc(F)cc1 (configuration not stated) | > 100 µM | > 100 µM | > 100 µM | > 100 µM | > 100 µM | > 100 µM | > 100 µM | – | – | – | – | – | – | – | – | –
7 | COC(=O)C1=Cc2cc(OC)c(OC)cc2[C@H](c2ccc(OC)c(OC)c2)C1C(=O)OC (some centres not stated) | > 100 µM | > 100 µM | > 100 µM | > 100 µM | > 100 µM | > 100 µM | > 100 µM | > 100 µM | – | – | – | – | – | – | – | –
8 | Cn1c(=O)c2ccc(-c3ccc(Br)cc3)nc2n(C)c1=O | > 100 µM | > 100 µM | > 100 µM | > 100 µM | > 100 µM | – | > 100 µM | > 100 µM | – | – | – | – | – | – | – | –
9 | COC(=O)C[CH2][Ge]([CH3])([CH3])[S]c1ccccc1 | 4.72 µM | > 100 µM | > 100 µM | > 100 µM | 67.8 µM | 23.3 µM | > 100 µM | > 100 µM | 1.25 µM | 36.5 µM | 51.2 µM | 44.2 µM | 23.5 µM | 4.08 µM | 27.4 µM | –
10 | O=C(/C=C/c1ccccc1Cl)c1cccc2ccccc12 | 29.6 µM | 30.5 µM | 32 µM | 23.6 µM | 34.8 µM | 28.6 µM | > 100 µM | 27.9 µM | – | – | – | – | – | – | – | –
11 | CC(=O)[CH-]C(=O)c1ccccc1.CC(=O)[CH-]C(=O)c1ccccc1.CC[C@H](/C=C/C(C)[C@H]1CCC2[C@@H]3CC=C4C[C@@H]([O-])CC[C@]4(C)C3CC[C@@]21C)C(C)C.CC[O-].[Ti+4] (some centres not stated) | > 100 µM | > 100 µM | > 100 µM | > 100 µM | > 100 µM | > 100 µM | > 100 µM | > 100 µM | > 100 µM | > 100 µM | > 100 µM | > 100 µM | > 100 µM | 84.4 µM | > 100 µM | > 100 µM
12 | Cc1ccc(NC(=O)CC/C(CC(=O)C(C)(C)C)=N/NC(=O)C[N+](C)(C)C)cc1C | > 100 µM | > 100 µM | > 100 µM | > 100 µM | > 100 µM | > 100 µM | > 100 µM | > 100 µM | – | – | – | – | – | – | – | –
13 | Cc1cc(=O)n2c3c(c4c(cc13)c(CO)cc(=O)n4C)OC2 | > 100 µM | > 100 µM | > 100 µM | > 100 µM | > 100 µM | – | 25.8 µM | 44.8 µM | – | – | – | – | – | – | – | –
14 | CC1(c2cccc(N)c2)C2C(=O)NC(=O)C1C(=O)NC2=O (configuration not stated) | > 100 µM | > 100 µM | > 100 µM | > 100 µM | 91.5 µM | 71.2 µM | 83.8 µM | > 100 µM | – | – | – | – | – | – | – | –
15 | CC(=O)[CH-]C(=O)c1ccccc1.CC(=O)[CH-]C(=O)c1ccccc1.CC1(C)OCC(C2OC3OC(C)(C)OC3C2[O-])O1.CC1(C)OCC(C2OC3OC(C)(C)OC3C2[O-])O1.[Ti+4] (configuration not stated) | 48.8 µM | 37.6 µM | – | 40.6 µM | 50.3 µM | 25.3 µM | – | – | 21.6 µM | 16.1 µM | – | 16.3 µM | 14.9 µM | 12.5 µM | – | –
16 | Cn1cc(-c2csc(-c3cn(CCCCN4CCCCC4)c4ccc(F)cc34)n2)c2cccnc21 | – | – | 3.25 µM | 3.16 µM | 32.7 µM | 3.04 µM | 3.38 µM | 3.08 µM | – | – | 1.7 µM | 1.7 µM | 16.2 µM | 1.52 µM | 1.68 µM | 1.59 µM
17 | COC(=O)NN1C(C)=C(C(=O)OC)C2(C#N)C(C(=O)OC)=C(C)N(NC(=O)OC)C12N (configuration not stated) | > 100 µM | > 100 µM | > 100 µM | > 100 µM | > 100 µM | – | > 100 µM | > 100 µM | – | – | – | – | – | – | – | –
18 | COC(=O)NC(=Nc1ccc(Oc2ccccc2)cc1NC=O)NC(=O)OC | > 100 µM | > 100 µM | > 100 µM | 2.96 µM | 0.526 µM | – | 9.4 µM | 5.27 µM | – | – | – | – | – | – | – | –
